Measurements reported in patent US5624923A, “Tricyclic diazepine vasopressin antagonists and oxytocin antagonists” (priority 1995, dated 1997).

Columns and labels:
oxytocin receptors = target: T1, oxytocin receptors (Rattus norvegicus, UniProt P70536); experiment: Oxytocin Receptor Binding; conditions: for IC50: 1.0 nM [3H]oxytocin
T1 construct: The uteri are dissected out, cleaned of fat and connective tissues; from tissue; host or cells: uterus of DES-treated female Sprague-Dawley rats
T1 sequence (P70536 1-388): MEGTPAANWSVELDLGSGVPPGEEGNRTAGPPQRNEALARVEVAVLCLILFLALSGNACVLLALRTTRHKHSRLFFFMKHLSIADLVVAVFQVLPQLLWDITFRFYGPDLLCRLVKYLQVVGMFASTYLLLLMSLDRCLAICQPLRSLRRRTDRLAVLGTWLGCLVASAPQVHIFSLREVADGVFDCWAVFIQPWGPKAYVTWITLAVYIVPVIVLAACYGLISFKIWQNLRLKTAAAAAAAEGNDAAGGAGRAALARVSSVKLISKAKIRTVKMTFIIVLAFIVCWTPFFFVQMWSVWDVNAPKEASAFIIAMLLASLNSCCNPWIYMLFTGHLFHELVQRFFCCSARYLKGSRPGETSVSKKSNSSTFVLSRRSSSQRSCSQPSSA
How it was run: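 Membranes from uteri of DES-primed (0.3 mg/kg i.m., 18 h) female Sprague-Dawley rats. Competition with 1.0 nM [3H]oxytocin in 50 mM Tris.HCl pH 7.4, 5 mM MgCl2 with protease inhibitors, 60 min at 22 °C, filtration read-out. Non-specific binding with 1.0 uM unlabeled OT; IC50 calculated.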

Vasopressin V2 = Vasopressin V2 Antagonist Activity in Conscious Hydrated Rats; type: in vivo, rat; conditions: 10 mg/kg orally, AVP 0.4 μg/kg i.p.
How it was run: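 Four-hour urine output, osmolality and electrolytes (Na+, K+, Cl−) recorded in water-loaded rats (30 mL/kg deionized water orally) given AVP i.p. at 0.4 μg/kg. Test compounds were given orally at 0.1–100 mg/kg 1 h before AVP; 2–4 rats per compound.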

[1] = target: T2, V1 Receptor Subtype in Human Platelet (Homo sapiens, UniProt P37288); experiment: Binding to Vasopressin V1 receptor subtype in Human Platelet Membranes; conditions: human platelet membranes
T2 construct: tissue Hudson Valley Blood Services, Westchester Medical Center, Valhalla, N.Y; host or cells: human platelets (frozen platelet rich plasma)
T2 sequence (P37288 whole entry): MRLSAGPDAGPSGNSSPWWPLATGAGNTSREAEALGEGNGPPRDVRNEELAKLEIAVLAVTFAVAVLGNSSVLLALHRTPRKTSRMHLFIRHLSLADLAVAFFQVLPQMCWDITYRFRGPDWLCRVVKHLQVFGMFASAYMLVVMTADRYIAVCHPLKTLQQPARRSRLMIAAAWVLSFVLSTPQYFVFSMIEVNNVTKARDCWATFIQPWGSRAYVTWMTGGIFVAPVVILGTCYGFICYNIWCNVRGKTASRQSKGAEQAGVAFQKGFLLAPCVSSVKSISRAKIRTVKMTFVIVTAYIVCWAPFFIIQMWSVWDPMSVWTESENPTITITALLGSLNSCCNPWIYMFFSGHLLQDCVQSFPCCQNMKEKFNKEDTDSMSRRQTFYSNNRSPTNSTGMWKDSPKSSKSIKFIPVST
Protocol: Radioligand Binding Experiments with Human Platelet Membranes (a) Platelet Membrane Preparation: Frozen platelet rich plasma (PRP), (Platelet Source: Hudson Valley Blood Services, Westchester Medical Center, Valhalla, N.Y.) are thawed to room temperature. The tubes containing the PRP are centrifuged at 16,000×g for 10 min. at 4° C. and the supernatant fluid discarded. […] The suspension is recentrifuged at 16,000× g for 10 min. This washing step is repeated one more time. The wash discarded and the lysed pellets homogenized in low ionic strength buffer of Tris.HCl, 5.0 mM, pH 7.5 containing 5.0 mM EDTA. The homogenate is centrifuged at 39,000× g for 10 min. The resulting pellet is resuspended in Tris. […] The final pellet is resuspended in 50.0 mM Tris. HCl buffer pH 7.4 containing 120 mM NaCl and 5.0 mM KCl to give 1.0-2.0 mg protein per ml of suspension. […] Platelet Membranes […] Then add 20 μl of [^3 H]Ligand (Manning or […] Vasopressin), to give final concentrations ranging from 0.01 to 10.0 nM. Initiate the binding by adding 80.0 μl of platelet suspension (approx. 100 μg protein). Mix all reagents by pipetting the mixture up and down a few times. Non specific binding is measured in the presence of 1.0 μM of unlabeled ligand (Manning or […] Vasopressin). Let the mixture stand undisturbed at room temperature for ninety (90) min. Upon this time, rapidly filter off the incubate under vacuum suction over GF/B filters, using a Brandel Harvester. Determine the radioactivity caught on the filter disks by the addition of liquid scintillant and counting in a liquid scintillator.

[2] = target: T3, Human V2 Vasopressin Receptor (Homo sapiens, UniProt P30518); experiment: Binding to Membranes of Mouse Fibroblast Cell Line (LV-2) Transfected with the cDNA Expressing the Human V2 Vasopressin Receptor; conditions: LV-2 cell membranes, human V2; read-out: V2 IC50 (**)
T3 construct: expressed in transfected cells; host or cells: mouse fibroblast cell line LV-2
T3 sequence (P30518 whole entry): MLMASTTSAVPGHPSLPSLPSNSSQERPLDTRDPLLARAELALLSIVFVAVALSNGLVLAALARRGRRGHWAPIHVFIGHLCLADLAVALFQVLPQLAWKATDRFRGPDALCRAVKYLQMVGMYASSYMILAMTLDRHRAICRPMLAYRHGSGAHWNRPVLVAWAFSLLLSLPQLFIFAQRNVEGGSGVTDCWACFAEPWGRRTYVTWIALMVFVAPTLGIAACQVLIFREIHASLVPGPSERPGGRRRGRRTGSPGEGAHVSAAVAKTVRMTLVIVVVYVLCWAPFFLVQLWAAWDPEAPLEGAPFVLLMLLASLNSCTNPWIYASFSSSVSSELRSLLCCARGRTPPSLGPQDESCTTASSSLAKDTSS
Protocol: Binding to Membranes of Mouse Fibroblast Cell Line (LV-2) Transfected with the cDNA Expressing the Human V2 Vasopressin Receptor
Flasks of 175 ml capacity, containing attached cells grown to confluence, are cleared of culture medium by aspiration. The flasks containing the attached cells are rinsed with 2×5 ml of phosphate buffered saline (PBS) and the liquid aspirated off each time. Finally, 5 ml of an enzyme free dissociation Hank's based solution (Specialty Media, Inc., Lafayette, N.J.) is added and the flasks are left undisturbed for 2 min. The content of all flasks is. poured into a centrifuge tube and the cells pelleted at 300× g for 15 min. The Hank's based solution is aspirated off and the cells homogenized with a polytron at setting #6 for 10 sec in 10.0 mM Tris.HCl buffer, pH 7.4 containing 0.25M sucrose and 1.0 mM EDTA. The homogenate is centrifuged at 1500× g for 10 min to remove ghost membranes. The supernatant fluid is centrifuged at 100,000× g for 60 min. to pellet the receptor protein. Upon completion, the pellet is resuspended in a small volume of 50.0 mM Tris. HCl buffer, pH 7.4. The protein content is determined by the Lowry method and the receptor membranes are suspended in 50.0 mM Tris.HCl buffer containing 0.1 mM phenylmethylsulfonylfluoride (PMSF) and 0.2% bovine serum albumin (BSA) to give 2.5 mg receptor protein per ml of suspension.
Arginine^8, vasopressin (S.A. 75.0 Ci/mmole) at 0.8 nM and the reaction initiated by the addition of 80.0 μl of tissue membranes (200.0 μg tissue protein). The plates are left undisturbed on the bench top for 120 min to reach equilibrium. Non specific binding is assessed in the presence of 1.0 μM of unlabeled ligand, added in 20 μl volume. For test compounds, these are solubilized in 50% dimethylsulfoxide (DMSO) and added in 20.0 μl volume to a final incubation volume of 200 μl. Upon completion of binding, the content of each well is filtered off, using a Brandel® cell Harvester (Gaithersburg, Md.). The radioactivity trapped on the filter disk by the ligand-receptor complex is assessed by liquid scintillation counting in a Packard LS Counter, with an efficiency of 65% for tritium. The data are analyzed for IC50 values by the LUNDON-2 program for competition (LUNDON SOFTWARE, Ohio).

Compound	IC50 (oxytocin receptors) [nM]	inhibition at 10 µM (oxytocin receptors; [3H]oxytocin) [%]	IC50 [1] [nM]	IC50 [2] [nM]	inhibition at 5 µM (oxytocin receptors; dose 5 μM, [3H]oxytocin) [%]	Osmolality (Vasopressin V2) [mOsm/kg]	Urine Volume (Vasopressin V2) [ml/4 hrs]
O=C(Nc1ccc(C(=O)N2Cc3cccn3Cc3ccccc32)c(Cl)c1)c1c(Cl)cccc1Cl [Example 529, N-(4-(5H-pyrrolo[2,1-c][1,4]benzodiazepin-10(11H-)-ylcarbonyl]-3-chlorophenyl]-2,6-dichlorobenzamide]	450	92	990	2	–	569	10.5
O=C(Nc1ccc(C(=O)N2Cc3cccn3Cc3ccccc32)c(Cl)c1)c1cccc(F)c1 [Example 538, N-[4-(5H-pyrrolo[2,1-c][1,4]benzodiazepin-10(11H)-ylcarbonyl)-3-chlorophenyl]-3-fluorobenzamide]	900	90	52	1	–	–	–
CSc1ccccc1C(=O)Nc1ccc(C(=O)N2Cc3cccn3Cc3ccccc32)c(Cl)c1 [Example 524, N-[4-(5H-pyrrolo[2,1-c][1,4]benzodiazepin-10(11H)-ylcarbonyl)-3-chlorophenyl]-2-(thiomethylbenzamide)]	1800	84	170	1.2	–	528	10
O=C(Nc1ccc(C(=O)N2Cc3cccn3Cc3ccccc32)c(Cl)c1)c1ccccc1F [Example 523, N-[4-(5H-pyrrolo[2,1-c][1,4]benzodiazepin-10(11H)-ylcarbonyl)-3-chlorophenyl]-2-fluorobenzamide]	–	–	110	2.8	–	1218	5
O=C(Nc1ccc(C(=O)N2CCc3cccn3-c3ccccc32)c(Cl)c1)c1ccc(Cl)cc1Cl [Example 609, N-[4-[(6,7-Dihydro-5H-pyrrolo[1,2-a]-[1,5]benzodiazepin-5-yl)carbonyl]-3-chlorophenyl]-2,4-dichlorobenzamide]	2700	66	2400	21	–	–	–
O=C(Nc1ccc(C(=O)N2Cc3ccc(Cl)n3Cc3ccccc32)cc1)c1ccc(Cl)cc1Cl [Example 54, N-[4-(3-Chloro-5H-pyrrolo[2,1-c]-[1,4]benzodiazepin-10(11H)yl-carbonyl)phenyl]-2,4-dichloro-benzamide]	160	94	310	7	–	1275	5
O=C(Nc1ccc(C(=O)N2Cc3cccn3Cc3ccccc32)c(Cl)c1)c1ccccc1Cl [Example 526, N-[4-(5H-pyrrolo[2,1-c][1,4]benzodiazepin-10(11H)-ylcarbonyl]-3-chlorophenyl]-2-chlorobenzamide]	470	97	50	3.3	–	455	17.8
O=C(Nc1ccc(C(=O)N2Cc3ccnn3Cc3ccccc32)c(Cl)c1)c1ccc(Cl)cc1Cl [Example 520, N-[4-(4H-Pyrazolo[5,1-c][1,4]benzodiazepin-5(10H)-ylcarbonyl)-3-chlorophenyl]-2,4-dichlorobenzamide]	2200	79	850	4.4	–	394	18.5
Cc1c(F)cccc1C(=O)Nc1ccc(C(=O)N2Cc3cccn3Cc3ccccc32)cc1Cl [Example 546, N-[4-(5H-pyrrolo[2,1-c][1,4]benzodiazepin-10(11H)-ylcarbonyl)-2-chlorophenyl]-3-fluoro-2-methylbenzamide]	990	91	66	73	–	–	–

Further lines, with some results ahead:

IC50 (oxytocin receptors) [nM]	inhibition at 10 µM (oxytocin receptors; [3H]oxytocin) [%]	IC50 [1] [nM]	IC50 [2] [nM]	inhibition at 5 µM (oxytocin receptors; dose 5 μM, [3H]oxytocin) [%]	Compound	Osmolality (Vasopressin V2) [mOsm/kg]	Urine Volume (Vasopressin V2) [ml/4 hrs]
–	–	220	1.7	–	Cc1ccc(F)cc1C(=O)Nc1ccc(C(=O)N2Cc3ccnn3Cc3ccccc32)c(Cl)c1 [Example 518, N-[4-(4H-Pyrazolo[5,1-c][1,4]benzodiazepin-5(10H)-ylcarbonyl)-3-chlorophenyl]-5-fluoro-2-methylbenzamide]	363	17.5
480	97	120	3.2	–	Cc1ccccc1C(=O)Nc1ccc(C(=O)N2Cc3ccnn3Cc3ccccc32)c(Cl)c1 [Example 519, N-[4-(4H-Pyrazolo[5,1-c][1,4]benzodiazepin-5(10H)-ylcarbonyl)-3-chlorophenyl]-2-methylbenzamide]	399	19.9
–	–	170	29	–	Cc1ccc(F)cc1C(=O)Nc1ccc(C(=O)N2Cc3ccc(CN(C)C)n3Cc3ccccc32)c(Cl)c1 [Example 668, N-[4-[[3-[(dimethylamino)methyl]-5H-pyrrolo[2,1-c][1,4]benzodiazepin-10(11H)-yl]carbonyl]-3-chlorophenyl]-5-fluoro-2-methylbenzamide]	378	20.7
260	–	16	4	97	Cc1ccc(F)cc1C(=O)Nc1ccc(C(=O)N2Cc3cccn3Cc3ccccc32)cc1Cl [Example 547, N-[4-(5H-pyrrolo[2,1-c][1,4]benzodiazepin-10(11H)-ylcarbonyl)-2-chlorophenyl]-5-fluoro-2-methylbenzamide]	–	–
–	–	71	35	–	Cc1ccccc1C(=O)Nc1ccc(C(=O)N2Cc3ccc(CN(C)C)n3Cc3ccccc32)c(Cl)c1 [Example 669, N-[4-[[3-[(dimethylamino)methyl]-5H-pyrrolo[2,1-c][1,4]benzodiazepin-10(11H)-yl]carbonyl]-3-chlorophenyl]-2-methylbenzamide]	–	–
